Measured values as given in patent US20250223303A1, “TRICYCLIC BORONIC ACID DERIVATIVE, AND PREPARATION METHOD THEREFOR AND APPLICATION THEREOF” (priority 2021, published 2025).

Legend:
[1] = system: Escherichia coli ARLG 2829; assay: MIC test of compounds in combination with antibiotics, Escherichia coli ARLG 2829; conditions: for MIC of biapenem in combination with compound, Escherichia coli ARLG-2829 NDM-5, OXA-1: Biapenem + compound (8 μg/mL); for MIC of meropenem in combination with compound, Escherichia coli ARLG-2829 NDM-5, OXA-1: Meropenem + compound (8 μg/mL)
Description: (§1) Strain preparation: the strains to be tested were streaked from glycerol tube at −80° C. onto Mueller Hinton II Agar plates. The plates were then placed in a 37° C. incubator and cultured for 18-24 hours.
(§2) Media preparation: CAMHB (Mueller Hinton II Broth): 22 g of powder was dissolved in 1 L of purified water and sterilized at 121° C. for 10 min for use. Saline: 8.5 g NaCl was dissolved in 1 L of pure water and sterilized at 121° C. for 30 min for use.
(§3) Preparation of compound and antibiotic stock solutions: the compound and antibiotic were dissolved in DMSO or water to 12.8 mg/mL.
(§4) 2-Fold gradient dilution of antibiotics: 300 μL of CAMHVIB medium was added to columns 2-12 of a 96-deep well plate. In column 1, 24 μL of antibiotic stock solution and 576 µL of CAMHB medium were added and mixed well, with a concentration of 512 μg/mL. 300 µL of antibiotic solution was transferred from the column 1 to the second column and mixed well. The process was repeated until column 11, and the column 12 was a blank control.
(§5) Dilution of combined compounds: the compound was diluted 400-fold to 32 μg/ml with CAMHB medium.
(§6) Working solution aliquoting: 25 μL of antibiotics was aliquoted into the 96-U bottom plate with a pipette, and 25 μL of combined compound was added to each well. If antibiotics were used alone, 25 μL of CAMHB medium was added.
(§7) Inoculum solution preparation: 5-6 single colonies were selected from the plate and suspended in normal saline. The bacterial suspension was adjusted to 0.2 (i.e., 0.5 McFarland turbidity, with a bacterial concentration was about 1 to 2×10^8 CFU/mL) with a turbidity meter. The bacterial suspension was diluted 100-fold with CAMHB medium for later use.
(§8) Inoculation: 50 μL of inoculum solution was transferred to the above 50 μL compound plate with a pipette.
(§9) Culture: The 96-U bottom plate was placed in an incubator at 37° C. for 18 to 20 h.
(§10) After the incubation, bacterial growth was visually observed, and the test plate was photographed and recorded.

[2] = system: Klebsiella pneumoniae ATCC BAA-1705; assay: MIC test of compounds in combination with antibiotics, Klebsiella pneumoniae ATCC BAA-1705; conditions: for MIC of biapenem in combination with compound, Klebsiella pneumoniae ATCC BAA-1705 KPC-2: Biapenem + compound (8 μg/mL); for MIC of meropenem in combination with compound, Klebsiella pneumoniae ATCC BAA-1705 KPC-2: Meropenem + compound (8 μg/mL)
[3] = system: Acinetobacter baumannii WX-AB005; assay: MIC test of compounds in combination with antibiotics, Acinetobacter baumannii WX-AB005; conditions: for MIC of biapenem in combination with compound, Acinetobacter baumannii WX-AB005: Biapenem + compound (8 μg/mL); for MIC of meropenem in combination with compound, Acinetobacter baumannii WX-AB005: Meropenem + compound (8 μg/mL)
[4] = system: Acinetobacter baumannii ARLG-1853 OXA-23; assay: MIC test of compounds in combination with antibiotics, Acinetobacter baumannii ARLG-1853; conditions: for MIC of biapenem in combination with compound, Acinetobacter baumannii ARLG-1853 OXA-23: Biapenem + compound (8 μg/mL); for MIC of meropenem in combination with compound, Acinetobacter baumannii ARLG-1853 OXA-23: Meropenem + compound (8 μg/mL)
Description: as §4, §5, §6, §7, §8, §9

[5] = system: Acinetobacter baumannii ARLG-1791 OXA-23; assay: MIC test of compounds in combination with antibiotics, Acinetobacter baumannii ARLG-1791; conditions: for MIC of biapenem in combination with compound, Acinetobacter baumannii ARLG-1791 OXA-23: Biapenem + compound (8 μg/mL); for MIC of meropenem in combination with compound, Acinetobacter baumannii ARLG-1791 OXA-23: Meropenem + compound (8 μg/mL)
Description: as §4, §5, §6, §7, §8, §9

[6] = system: Acinetobacter baumannii ARLG-1852 OXA-23; assay: MIC test of compounds in combination with antibiotics, Acinetobacter baumannii ARLG-1852; conditions: for MIC of biapenem in combination with compound, Acinetobacter baumannii ARLG-1852 OXA-23: Biapenem + compound (8 μg/mL); for MIC of meropenem in combination with compound, Acinetobacter baumannii ARLG-1852 OXA-23: Meropenem + compound (8 μg/mL)
[7] = system: Acinetobacter baumannii WX-AB013; assay: MIC test of compounds in combination with antibiotics, Acinetobacter baumannii WX-AB013; conditions: for MIC of biapenem in combination with compound, Acinetobacter baumannii WX-AB013: Biapenem + compound (8 μg/mL); for MIC of meropenem in combination with compound, Acinetobacter baumannii WX-AB013: Meropenem + compound (8 μg/mL)
Description: as §4, §5, §6, §7, §8, §9

[8] = system: Klebsiella pneumoniae ATCC BAA-2470; assay: MIC test of compounds in combination with antibiotics, Klebsiella pneumoniae ATCC BAA-2470; conditions: for MIC of biapenem in combination with compound, Klebsiella pneumoniae ATCC BAA-2470 NDM-1: Biapenem + compound (8 μg/mL); for MIC of meropenem in combination with compound, Klebsiella pneumoniae ATCC BAA-2470 NDM-1: Meropenem + compound (8 μg/mL)
[9] = system: Klebsiella pneumoniae ARLG 1196; assay: MIC test of compounds in combination with antibiotics, Klebsiella pneumoniae ARLG 1196; conditions: for MIC of biapenem in combination with compound, Klebsiella pneumoniae ARLG-1196 CTM-1 group, SHV, NDM, TEM: Biapenem + compound (8 μg/mL); for MIC of meropenem in combination with compound, Klebsiella pneumoniae ARLG-1196 CTM-1 group, SHV, NDM, TEM: Meropenem + compound (8 μg/mL)
Description: as §1, §2, §3, §4, §5, §6, §7, §8, §9, §10

[10] = system: Acinetobacter baumannii ARLG-1809 OXA-23; assay: MIC test of compounds in combination with antibiotics, Acinetobacter baumannii ARLG-1809; conditions: for MIC of biapenem in combination with compound, Acinetobacter baumannii ARLG-1809 OXA-23: Biapenem + compound (8 μg/mL); for MIC of meropenem in combination with compound, Acinetobacter baumannii ARLG-1809 OXA-23: Meropenem + compound (8 μg/mL)
Description: as §4, §5, §6, §7, §8, §9

SMILES	MIC of biapenem in combination with compound, Escherichia coli ARLG-2829 NDM-5, OXA-1 [1] [mg/L]	MIC of meropenem in combination with compound, Escherichia coli ARLG-2829 NDM-5, OXA-1 [1] [mg/L]	MIC of biapenem in combination with compound, Klebsiella pneumoniae ATCC BAA-1705 KPC-2 [2] [mg/L]	MIC of meropenem in combination with compound, Klebsiella pneumoniae ATCC BAA-1705 KPC-2 [2] [mg/L]	MIC of biapenem in combination with compound, Acinetobacter baumannii WX-AB005 [3] [mg/L]	MIC of meropenem in combination with compound, Acinetobacter baumannii WX-AB005 [3] [mg/L]	MIC of biapenem in combination with compound, Acinetobacter baumannii ARLG-1853 OXA-23 [4] [mg/L]	MIC of meropenem in combination with compound, Acinetobacter baumannii ARLG-1853 OXA-23 [4] [mg/L]	MIC of biapenem in combination with compound, Acinetobacter baumannii ARLG-1791 OXA-23 [5] [mg/L]	MIC of meropenem in combination with compound, Acinetobacter baumannii ARLG-1791 OXA-23 [5] [mg/L]	MIC of biapenem in combination with compound, Acinetobacter baumannii ARLG-1852 OXA-23 [6] [mg/L]	MIC of meropenem in combination with compound, Acinetobacter baumannii ARLG-1852 OXA-23 [6] [mg/L]	MIC of biapenem in combination with compound, Acinetobacter baumannii WX-AB013 [7] [mg/L]	MIC of meropenem in combination with compound, Acinetobacter baumannii WX-AB013 [7] [mg/L]	MIC of biapenem in combination with compound, Klebsiella pneumoniae ATCC BAA-2470 NDM-1 [8] [mg/L]	MIC of meropenem in combination with compound, Klebsiella pneumoniae ATCC BAA-2470 NDM-1 [8] [mg/L]	MIC of biapenem in combination with compound, Klebsiella pneumoniae ARLG-1196 CTM-1 group, SHV, NDM, TEM [9] [mg/L]	MIC of meropenem in combination with compound, Klebsiella pneumoniae ARLG-1196 CTM-1 group, SHV, NDM, TEM [9] [mg/L]	MIC of biapenem in combination with compound, Acinetobacter baumannii ARLG-1809 OXA-23 [10] [mg/L]	MIC of meropenem in combination with compound, Acinetobacter baumannii ARLG-1809 OXA-23 [10] [mg/L]
O=C(O)c1c(SCCN2CCOCC2)ccc2c1OB(O)C1CC21 (single isomer, unassigned) [Compound 15-b]	0.25	1	≤0.125	≤0.125	2	4	0.25	4	0.5	4	0.25	2	1	4	≤0.125	1	≤0.125	≤0.125	1	2
CC(Sc1ccc2c(c1C(=O)O)OB(O)C1CC21)C1CC1 (single isomer, unassigned) [Compound 16-a]	0.25	2	0.5	4	2	8	0.5	2	0.5	4	0.25	2	0.5	4	1	2	0.5	1	1	2
CC(Sc1ccc2c(c1C(=O)O)OB(O)C1CC21)C1CC1 (single isomer, unassigned) [Compound 16-b]	0.5	16	0.25	2	4	8	1	8	1	8	0.5	4	2	4	1	16	0.5	8	2	4
CC(Sc1ccc2c(c1C(=O)O)OB(O)C1CC21)C1CC1 (single isomer, unassigned) [Compound 16-c]	≤0.125	4	1	8	4	8	1	4	1	8	1	4	2	4	0.5	8	1	2	2	4
CC(Sc1ccc2c(c1C(=O)O)OB(O)C1CC21)C1CC1 (single isomer, unassigned) [Compound 16-d]	≤0.125	0.5	0.5	2	2	8	0.25	2	0.5	8	0.25	2	0.5	4	0.25	0.5	≤0.125	0.25	0.5	4
CC(Sc1ccc2c(c1C(=O)O)OB(O)C1CC21)C1CCOCC1 (single isomer, unassigned) [Compound 17-a]	0.25	8	0.5	8	4	32	1	8	2	16	0.5	4	1	8	0.25	32	0.5	8	4	32
